Experimental data reported in patent US20140243422A1, “METHODS OF TREATING BEHAVIORAL AND PSYCHIATRIC DISORDERS” (ELAN PHARMACEUTICALS, INC., priority 2011, published 2014).

Experiments:
[1] = test system: patients with mild to moderate AD (MMSE 16-26); assay: Phase 2 placebo-controlled trial: cognitive and functional outcome measures (NTB, ADCS-ADL, CDR-SB); assay type: in vivo, human
Description: In a Phase 2, parallel arm, dose-ranging, placebo-controlled, double-blind, multicenter trial in patients with mild to moderate AD (MMSE 16-26), scyllo-inositol was administered to study subjects in immediate release tablets twice daily at the dosage level set for each study arm or identical-appearing placebo tablets were administered in the control arm. […] The study included neuropsychological assessments using the NPI-12 item scale, as well as assessments of scyllo-Inositol (SI) and myo-inositol (MI) brain levels using magnetic resonance spectroscopy (MRS).
Study drug was administered as placebo or one of 3 doses of scyllo-inositol (SI): 250 mg, 1000 mg and 2000 mg, each dose given twice daily (bid) as capsules of either 250 mg or 1000 mg.
The present study was a dose ranging study in Mild and Moderate AD patients (defined as having MMSE scores of 16-26 inclusive), and included 3 doses of scyllo-insoitol given bid (250 mg, 1000 mg, and 2000 mg) and placebo. The study was of 78 weeks duration and enrolled a total of 353 patients, and 351 received study drug (safety population). Due to safety findings in the 2 highest dose groups, these 2 groups were discontinued and the study's final efficacy analysis was based only on the 250 mg and placebo groups. The primary efficacy analysis was based on the overall population (mild and moderate), but the statistical analysis plan (SAP) Included subgroup analyses by disease severity, and defined Mild as patients with MMSE 23-26 and Moderate 16-22 inclusive. In the overall study population, total randomized to all 4 dose groups=353, total that received study drug=351 (safety population, at any dose). For placebo and 250 mg group, the overall m-ITT (modified intent-to-treat)=166, overall PPS (per protocol set)=96.
Values for all clinical outcome measures were calculated so that a positive change from baseline indicates improvement, and a positive difference from placebo indicates drug benefit.
A sensitivity analysis was performed post-hoc using a wider definition of the Mild sub-group (MMSE: 22-26 inclusive) with a larger sample size. In this sensitivity analysis, the positive effect of the 250 mg on the NTB score approached a significant trend (p<0.1) in the m-ITT analysis (Table 3), and was significant (p<0.05) in the PP analysis (data on file). […] On this basis, all further analyses shown here are defined in the Mild and Moderate subgroups as patients having MMSE scores between 22-26 (Mild) and 16-21 (Moderate) inclusive.

myo-inositol = details: transgenic mice, Choi et al. 2010; cited from earlier work
[2] = 250 mg bid, Mild MMSE 22-26 (post-hoc), m-ITT
[3] = 250 mg bid, Mild MMSE 22-26, m-ITT
[4] = 250 mg bid, Mild MMSE 23-26, PPS
[5] = 250 mg bid, Mild MMSE 23-26, m-ITT
[6] = 250 mg bid, Mild MMSE 23-26, m-ITT, week 78, positive = drug benefit

O[C@H]1[C@H](O)[C@@H](O)[C@H](O)[C@@H](O)[C@@H]1O [scyllo-inositol]
ADCS-DL drug-placebo difference [1, 2]: 3.15 | CDR-SB drug-placebo difference [1, 2]: 0.97 | NTB drug-placebo difference [1, 2]: 0.2 | ADCS-DL % effect compared to placebo [1, 3]: 42% | CDR-SB % effect compared to placebo [1, 3]: 42% | NTB % effect compared to placebo [1, 3]: 75% | ADCS-ADL % effect compared to placebo [1, 4]: 31% | ADCS-ADL drug-placebo difference [1, 4]: 2.25 | CDR-SB % effect compared to placebo [1, 4]: 44% | CDR-SB drug-placebo difference [1, 4]: 0.95 | NTB % effect compared to placebo [1, 4]: 100% | NTB drug-placebo difference [1, 4]: 0.4 | ADCS-ADL % effect compared to placebo [1, 5]: 35% | CDR-SB % effect compared to placebo [1, 5]: 40% | NTB % effect compared to placebo [1, 5]: 72% | ADCS-ADL drug-placebo difference [1, 6]: 2.26 | CDR-SB drug-placebo difference [1, 6]: 0.87 | NTB drug-placebo difference [1, 6]: 0.2 | magnitude of the 250 mg effect on the NTB ([1]; 250 mg bid, overall mild and moderate population, per protocol subjects, week 78, not statistically significant): 0.15 | NTB benefit compared to placebo ([1]; 250 mg bid, overall population, per protocol subjects, week 78): 40% | benefit on co-primary cognitive and functional endpoints (NTB and ADCS-ADL) ([1]; overall Mild and Moderate population): no statistically significant benefit | myo-inositol reductions in frontal cortex and hippocampus (MRS) (myo-inositol): rather modest non significant myo-inositol reductions
